Test results taken from ChEMBL document CHEMBL5360653, “Marine Alkaloid Lepadins E and H Induce Ferroptosis for Cancer Chemotherapy” (J Med Chem, 2023).
The source made the active and inactive calls. The rule behind the calls is not given here.

Tests used:
[1] = test system: HeLa; assay: Cytotoxicity against human HeLa cells incubated for 72 hrs by MTT assay; type: functional, cell-based
[2] = test system: HeLa; assay: Effect on lipid peroxidation in human HeLa cells incubated at 200 nM for 4 hrs by C11-BODIPY581/591 staining based flow cytometric analysis; type: functional, cell-based
[3] = test system: HeLa; assay: Cytotoxicity against human HeLa cells assessed as increase in cell viability at 200 nM for 4 hrs relative to control; type: functional

SMILES | IC50 [1] | Activity [2] | Activity [3]
CCC[C@@H](O)CCCC[C@H]1CCC[C@H]2N[C@@H](C)[C@H](O)C[C@@H]12 | > 20 µM | – | –
CCCCCCCC(=O)O[C@@H]1C[C@H]2[C@@H](CCCC[C@H](O)CCC)CCC[C@H]2N[C@H]1C | 11.7 µM | – | –
CCCCC/C=C/C(=O)OC | > 20 µM | – | –
CCC/C=C/C=C/C(=O)OC | > 20 µM | – | –
Clc1cccc(CNC2=Nc3ccccc3NC23CCNCC3)c1 | – | Active | 5%
